Laboratory results published in EP0668872B1 (priority 1992, dated 1994).

Tested on: calcium channels
Conditions: read-out: IC50 values for blocking calcium channels; cerebellar granule cells of 8 day old rats, 6, 7 and 8 days of culture; fura2/AM fluorescence, 37°C

Q: For `COc1ccc(CCN(C)CCCC(C#N)(c2ccc(OC)c(OC)c2)C(C)C)cc1OC` (stereo not shown) [Verapamil], which IC50 is on record?
A: Its IC50 is 4.8 µM.
